# Data published in ChEMBL document CHEMBL1201862, “PubChem BioAssay data set” (2004).
# Active and inactive are the calls of the source.
# Tests used:
# [1] = molecular target: T1, Heat shock factor protein 1 (Mus musculus, UniProt P38532); test: decrease of HSF1-responsive luciferase luminescence – cell-based, NIH3T3, dose retest, confirmation (AID 2382); type: functional;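 also: NIH3T3 fibroblasts with HSF1-driven luciferase reporter stressed by proteasome inhibitor MG132; luminescence from HSF1-driven luciferase expression after 8 hours of MG132 stress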
# T1 sequence (P38532 whole entry): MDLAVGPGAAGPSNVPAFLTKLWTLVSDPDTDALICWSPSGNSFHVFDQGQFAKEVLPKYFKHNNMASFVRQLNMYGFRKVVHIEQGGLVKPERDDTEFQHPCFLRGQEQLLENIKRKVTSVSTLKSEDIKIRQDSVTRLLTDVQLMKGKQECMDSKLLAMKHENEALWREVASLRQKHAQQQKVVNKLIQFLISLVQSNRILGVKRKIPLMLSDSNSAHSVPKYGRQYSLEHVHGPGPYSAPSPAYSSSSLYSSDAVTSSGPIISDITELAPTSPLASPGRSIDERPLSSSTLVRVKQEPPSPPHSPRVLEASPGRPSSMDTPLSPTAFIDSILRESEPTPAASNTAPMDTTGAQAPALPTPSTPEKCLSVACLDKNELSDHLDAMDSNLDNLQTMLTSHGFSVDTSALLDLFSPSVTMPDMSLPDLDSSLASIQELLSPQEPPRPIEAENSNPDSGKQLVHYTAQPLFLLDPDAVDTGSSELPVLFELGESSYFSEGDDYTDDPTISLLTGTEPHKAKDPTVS
# Exodeoxyribonuclease V = Exodeoxyribonuclease V (Escherichia coli (strain K12), UniProt P04993+P07648+P08394); test: RecBCD inhibition via phage-restricted bacterial growth – absorbance, V66 E. coli, mutant T4 phage, counter-screen for AddAB inhibitor project, dose response (AID 492957); type: functional, cell-based, Escherichia coli str. K-12 substr. MG1655
# Chain of Exodeoxyribonuclease V (P04993 whole entry): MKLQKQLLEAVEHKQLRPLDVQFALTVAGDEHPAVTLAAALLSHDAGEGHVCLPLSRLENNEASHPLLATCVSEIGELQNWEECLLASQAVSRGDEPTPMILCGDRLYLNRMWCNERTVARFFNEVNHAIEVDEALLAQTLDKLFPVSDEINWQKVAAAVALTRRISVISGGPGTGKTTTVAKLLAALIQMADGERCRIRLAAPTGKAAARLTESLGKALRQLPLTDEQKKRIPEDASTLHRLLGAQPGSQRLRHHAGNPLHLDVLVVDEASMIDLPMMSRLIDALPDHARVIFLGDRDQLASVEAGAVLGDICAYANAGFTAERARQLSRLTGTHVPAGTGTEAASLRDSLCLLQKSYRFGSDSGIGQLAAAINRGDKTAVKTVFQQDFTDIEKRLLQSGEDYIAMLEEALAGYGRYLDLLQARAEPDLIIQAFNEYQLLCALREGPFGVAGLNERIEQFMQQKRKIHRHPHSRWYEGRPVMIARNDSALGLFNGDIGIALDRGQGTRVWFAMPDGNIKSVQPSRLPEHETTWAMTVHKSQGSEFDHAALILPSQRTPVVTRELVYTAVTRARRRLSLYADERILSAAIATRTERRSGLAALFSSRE
# Chain of Exodeoxyribonuclease V (P07648 whole entry): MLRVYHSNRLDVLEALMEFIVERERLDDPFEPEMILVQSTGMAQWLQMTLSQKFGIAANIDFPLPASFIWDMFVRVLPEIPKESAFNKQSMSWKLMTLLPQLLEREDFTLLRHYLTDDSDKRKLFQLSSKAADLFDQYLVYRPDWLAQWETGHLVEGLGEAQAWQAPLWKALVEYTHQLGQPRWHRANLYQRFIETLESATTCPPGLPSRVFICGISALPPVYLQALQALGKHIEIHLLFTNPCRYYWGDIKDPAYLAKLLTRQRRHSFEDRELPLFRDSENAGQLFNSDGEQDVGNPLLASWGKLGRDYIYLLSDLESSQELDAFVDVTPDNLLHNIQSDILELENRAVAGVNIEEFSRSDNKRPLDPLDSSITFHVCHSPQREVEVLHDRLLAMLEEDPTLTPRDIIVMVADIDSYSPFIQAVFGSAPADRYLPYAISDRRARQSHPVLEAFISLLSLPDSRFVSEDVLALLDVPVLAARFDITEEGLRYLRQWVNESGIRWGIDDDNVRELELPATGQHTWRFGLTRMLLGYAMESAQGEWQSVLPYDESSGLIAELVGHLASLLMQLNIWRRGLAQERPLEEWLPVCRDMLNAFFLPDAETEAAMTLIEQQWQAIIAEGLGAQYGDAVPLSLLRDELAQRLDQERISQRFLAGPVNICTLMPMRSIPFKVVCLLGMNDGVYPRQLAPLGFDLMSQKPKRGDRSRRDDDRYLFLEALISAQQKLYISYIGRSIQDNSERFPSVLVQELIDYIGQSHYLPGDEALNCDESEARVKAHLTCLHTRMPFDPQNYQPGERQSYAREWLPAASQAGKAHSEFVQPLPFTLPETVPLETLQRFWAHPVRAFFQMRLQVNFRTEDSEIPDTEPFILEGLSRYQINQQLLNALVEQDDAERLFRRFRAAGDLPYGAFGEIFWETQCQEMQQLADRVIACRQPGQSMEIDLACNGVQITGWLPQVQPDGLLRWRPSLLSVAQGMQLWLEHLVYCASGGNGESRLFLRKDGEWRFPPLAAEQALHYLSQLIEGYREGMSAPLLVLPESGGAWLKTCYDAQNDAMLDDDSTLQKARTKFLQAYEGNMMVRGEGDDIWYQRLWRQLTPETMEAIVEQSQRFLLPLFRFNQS
# Chain of Exodeoxyribonuclease V (P08394 whole entry): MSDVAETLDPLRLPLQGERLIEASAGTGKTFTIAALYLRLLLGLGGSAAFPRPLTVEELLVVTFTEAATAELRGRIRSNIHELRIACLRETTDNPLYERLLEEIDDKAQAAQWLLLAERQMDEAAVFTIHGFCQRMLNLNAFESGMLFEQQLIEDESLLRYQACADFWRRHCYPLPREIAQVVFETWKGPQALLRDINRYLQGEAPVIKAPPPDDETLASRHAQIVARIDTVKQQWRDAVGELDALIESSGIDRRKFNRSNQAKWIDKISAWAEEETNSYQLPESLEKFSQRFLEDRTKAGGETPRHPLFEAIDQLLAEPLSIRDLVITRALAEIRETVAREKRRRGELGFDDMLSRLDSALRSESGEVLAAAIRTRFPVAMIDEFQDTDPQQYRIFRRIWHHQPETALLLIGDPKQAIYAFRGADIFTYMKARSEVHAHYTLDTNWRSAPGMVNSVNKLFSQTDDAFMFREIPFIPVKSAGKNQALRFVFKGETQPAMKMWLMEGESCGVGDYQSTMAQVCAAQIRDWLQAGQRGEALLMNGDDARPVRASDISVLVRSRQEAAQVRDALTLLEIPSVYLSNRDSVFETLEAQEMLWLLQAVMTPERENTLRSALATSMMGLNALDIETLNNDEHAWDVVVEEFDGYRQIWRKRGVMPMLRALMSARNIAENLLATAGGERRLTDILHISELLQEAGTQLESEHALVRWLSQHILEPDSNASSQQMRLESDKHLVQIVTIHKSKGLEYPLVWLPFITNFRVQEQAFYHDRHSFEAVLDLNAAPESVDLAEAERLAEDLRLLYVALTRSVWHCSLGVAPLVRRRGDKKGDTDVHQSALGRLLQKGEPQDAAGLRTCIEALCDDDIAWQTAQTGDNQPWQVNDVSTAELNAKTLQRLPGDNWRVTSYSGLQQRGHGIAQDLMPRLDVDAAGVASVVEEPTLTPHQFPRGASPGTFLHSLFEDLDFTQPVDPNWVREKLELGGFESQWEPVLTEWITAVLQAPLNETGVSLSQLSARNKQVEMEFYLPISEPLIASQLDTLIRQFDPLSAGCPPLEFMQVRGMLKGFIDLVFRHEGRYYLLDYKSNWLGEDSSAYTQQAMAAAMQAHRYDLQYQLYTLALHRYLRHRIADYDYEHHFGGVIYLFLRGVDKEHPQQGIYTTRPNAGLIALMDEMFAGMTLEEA
# [2] = HEK-293T viability loss after treatment – luminescence, T-cell screen hits, cytotoxicity control for TCR NF-kB inhibitor project, dose response (AID 489026); type: functional, cell-based;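 also: cells exposed to compound about 14 hours before the viability readout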
# [3] = Counterscreen for AddAB inhibitors: absorbance-based bacterial cell-based high throughput dose response assay for inhibitors of bacterial viability. [Related pubchem assays (depositor defined):AID435030, AID449728, AID449731, AID488942, AID488955, AID488956]; type: functional
# [4] = molecular target: Luciferin 4-monooxygenase (Photuris pensylvanica, UniProt Q27757); test: inhibition of Cell Titer Glo luciferase signal – biochemical, luminescence, cherry-picks, counter-screen for HSF-1 reporter inhibitor project, dose response (AID 588847)
# Vero = test: cells; type: functional; conditions: Chlorocebus sabaeus
# Paired box protein Pax-8 = Paired box protein Pax-8 (Homo sapiens, UniProt Q06710); test: PAX8 transcriptional activity inhibition in RMG-I – RMG-I cells, luciferase, cherry-pick, dose response (AID 687027); type: functional, cell-based;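 also: luciferase reporter driven by Pax8 target thyroperoxidase promoter measured by SteadyGlo luminescence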
# Chain of Paired box protein Pax-8 (Q06710 whole entry): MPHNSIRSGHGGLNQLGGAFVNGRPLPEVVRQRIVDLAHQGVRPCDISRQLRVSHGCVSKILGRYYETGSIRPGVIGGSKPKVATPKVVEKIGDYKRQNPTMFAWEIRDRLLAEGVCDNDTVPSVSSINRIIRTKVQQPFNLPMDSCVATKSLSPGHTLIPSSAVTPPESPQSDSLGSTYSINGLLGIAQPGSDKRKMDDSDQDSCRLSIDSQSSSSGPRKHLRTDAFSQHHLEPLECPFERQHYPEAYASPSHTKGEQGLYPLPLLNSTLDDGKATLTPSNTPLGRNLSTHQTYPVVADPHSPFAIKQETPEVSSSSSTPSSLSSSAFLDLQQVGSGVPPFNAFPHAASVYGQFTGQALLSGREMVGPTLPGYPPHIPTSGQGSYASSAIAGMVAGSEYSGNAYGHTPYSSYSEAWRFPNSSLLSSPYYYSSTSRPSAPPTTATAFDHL
# [5] = A549 cell cytotoxicity, dose response, cytotoxicity control, plate reader, cherry-pick, antagonist series (AID 743412); type: functional, cell-based
# [6] = toxicity toward HepG2 liver cells – cell-based, plate reader, cherry-pick, antagonist series, cytotoxicity control, dose response (AID 743416); type: functional
# [7] = blockers of bursicon-stimulated LGR2 cAMP reporter – cell-based, HEK293, CRE-luciferase reporter, cherry pick, set 2, dose response (AID 743343); type: functional;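 also: transfected cells were stimulated with diluted bursicon conditioned medium after compound addition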
# [8] = general cell-killing toxicity readout – plate reader, dry powder samples, cytotoxicity control for PAX8 inhibitor project, dose response (AID 743021); type: functional, cell-based
# [9] = blockade of melanocortin 4 receptor signaling – cell-based, plate reader, cherry pick, counter-screen for LGR2 antagonist project, dose response (AID 743444); type: functional;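 also: transfected HEK 293 cells stimulated with alpha-MSH peptide; potency of inhibitors of the alpha-MSH evoked signal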
# [10] = viability loss in HEK293 cells – cell-based, plate reader, cherry-picked samples, cytotoxicity control, dose response (AID 743446); type: functional
# [11] = Trypanosoma cruzi growth suppression in host cells – NIH3T3 host cells, beta-gal luminescence, confirmation (AID 2044); type: functional, cell-based;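 also: intracellular parasites grown in NIH/3T3 mouse fibroblasts as host cells; luminescent beta-galactosidase reporter signal from transgenic T. cruzi replicating inside host cells; inhibitors lower the luminescence signal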
# [12] = Luminescence-based dose response cell-based high throughput screening assay for cytotoxic compounds using the IEC-6 intestinal epithelial cell line. [Related pubchem assays: 1858 (Summary AID.), 1825 (Counterscreen.), 1907 (Confirmation screen.)]; type: functional
# [13] = molecular target: T2, Calpain-2 catalytic subunit (Sus scrofa, UniProt P43367); test: m-calpain protease blockers, concentration series – biochemical, fluorogenic peptide substrate, dose response (AID 1420); type: functional
# T2 sequence (P43367 whole entry): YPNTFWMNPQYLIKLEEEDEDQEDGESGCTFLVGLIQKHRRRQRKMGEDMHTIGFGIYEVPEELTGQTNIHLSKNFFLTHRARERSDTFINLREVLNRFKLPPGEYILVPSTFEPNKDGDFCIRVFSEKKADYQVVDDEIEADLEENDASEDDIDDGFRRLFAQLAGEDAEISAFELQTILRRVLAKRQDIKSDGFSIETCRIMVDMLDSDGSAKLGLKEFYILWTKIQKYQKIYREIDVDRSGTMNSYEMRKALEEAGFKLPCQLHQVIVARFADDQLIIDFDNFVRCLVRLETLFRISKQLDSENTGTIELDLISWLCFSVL
# [14] = NIH3T3 cell viability loss – ATP luminescence, mouse fibroblasts, counter-screen, dose response (AID 2010); type: functional, cell-based;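 also: cells exposed to compound for about 90 hours before reading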
# [15] = molecular target: Microphthalmia-associated transcription factor (Homo sapiens, UniProt O75030); test: reducers of TRPM1 reporter luminescence, concentration series – cell-based, SK-MEL-5, cherry-picked, set 3, MITF inhibitor project, dose response (AID 493073); type: functional;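 also: SK-MEL-5 melanoma cells with luciferase driven by the MITF target TRPM1 promoter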
# [16] = molecular target: T3, Apoptotic protease-activating factor 1 (Homo sapiens, UniProt O14727); type: functional
# T3 sequence (O14727 whole entry): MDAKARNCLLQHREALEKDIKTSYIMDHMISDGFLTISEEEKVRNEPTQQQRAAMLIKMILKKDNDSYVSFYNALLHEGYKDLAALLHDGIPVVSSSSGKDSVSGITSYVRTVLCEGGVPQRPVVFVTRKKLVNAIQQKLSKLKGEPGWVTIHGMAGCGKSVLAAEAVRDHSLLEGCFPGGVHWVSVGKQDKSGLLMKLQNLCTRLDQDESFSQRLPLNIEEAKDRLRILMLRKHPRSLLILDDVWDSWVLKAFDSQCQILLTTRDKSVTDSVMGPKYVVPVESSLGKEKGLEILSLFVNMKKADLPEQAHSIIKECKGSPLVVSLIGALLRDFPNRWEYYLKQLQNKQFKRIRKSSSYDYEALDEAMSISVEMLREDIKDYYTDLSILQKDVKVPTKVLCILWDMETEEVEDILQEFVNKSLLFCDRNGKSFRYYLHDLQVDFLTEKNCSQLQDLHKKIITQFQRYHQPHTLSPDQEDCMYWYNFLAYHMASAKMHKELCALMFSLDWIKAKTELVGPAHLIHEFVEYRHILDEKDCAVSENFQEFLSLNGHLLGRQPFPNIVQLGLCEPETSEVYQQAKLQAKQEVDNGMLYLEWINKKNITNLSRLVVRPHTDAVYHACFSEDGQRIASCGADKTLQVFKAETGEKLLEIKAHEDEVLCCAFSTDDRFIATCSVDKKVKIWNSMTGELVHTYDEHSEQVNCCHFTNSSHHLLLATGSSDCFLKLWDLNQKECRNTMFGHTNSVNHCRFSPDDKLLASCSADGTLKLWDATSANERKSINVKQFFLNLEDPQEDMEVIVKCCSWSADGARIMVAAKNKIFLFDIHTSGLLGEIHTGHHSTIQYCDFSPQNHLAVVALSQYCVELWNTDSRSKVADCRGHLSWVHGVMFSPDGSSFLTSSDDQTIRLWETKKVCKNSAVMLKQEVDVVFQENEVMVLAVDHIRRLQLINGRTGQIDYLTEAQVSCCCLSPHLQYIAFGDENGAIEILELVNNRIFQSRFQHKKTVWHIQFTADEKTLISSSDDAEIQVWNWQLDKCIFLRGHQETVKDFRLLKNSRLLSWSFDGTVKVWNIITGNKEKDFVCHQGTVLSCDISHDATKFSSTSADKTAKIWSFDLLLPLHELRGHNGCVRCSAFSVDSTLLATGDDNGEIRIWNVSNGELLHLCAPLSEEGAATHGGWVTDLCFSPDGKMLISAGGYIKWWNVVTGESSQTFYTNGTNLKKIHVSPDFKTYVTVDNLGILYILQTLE
# INS1 = test: INS-1E survival protection against cytokine death – cell-based, luminescence, retest, dose response (AID 449756); type: functional; conditions: Rattus norvegicus;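 also: cell death triggered by IL-1 beta plus TNF-alpha plus IFN-gamma mixture; protective hits raise ATP signal compared with cytokine alone wells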
# A-375 = test: proliferation inhibition in MITF-low A375 cells – cell-based, cherry-pick samples, set 2, counter-screen for MITF modulator project, dose response (AID 540335); type: functional; conditions: Homo sapiens
# [17] = molecular target: T4, Histone-lysine N-methyltransferase NSD2 (Homo sapiens, UniProt O96028); type: biochemical
# T4 sequence (O96028 whole entry): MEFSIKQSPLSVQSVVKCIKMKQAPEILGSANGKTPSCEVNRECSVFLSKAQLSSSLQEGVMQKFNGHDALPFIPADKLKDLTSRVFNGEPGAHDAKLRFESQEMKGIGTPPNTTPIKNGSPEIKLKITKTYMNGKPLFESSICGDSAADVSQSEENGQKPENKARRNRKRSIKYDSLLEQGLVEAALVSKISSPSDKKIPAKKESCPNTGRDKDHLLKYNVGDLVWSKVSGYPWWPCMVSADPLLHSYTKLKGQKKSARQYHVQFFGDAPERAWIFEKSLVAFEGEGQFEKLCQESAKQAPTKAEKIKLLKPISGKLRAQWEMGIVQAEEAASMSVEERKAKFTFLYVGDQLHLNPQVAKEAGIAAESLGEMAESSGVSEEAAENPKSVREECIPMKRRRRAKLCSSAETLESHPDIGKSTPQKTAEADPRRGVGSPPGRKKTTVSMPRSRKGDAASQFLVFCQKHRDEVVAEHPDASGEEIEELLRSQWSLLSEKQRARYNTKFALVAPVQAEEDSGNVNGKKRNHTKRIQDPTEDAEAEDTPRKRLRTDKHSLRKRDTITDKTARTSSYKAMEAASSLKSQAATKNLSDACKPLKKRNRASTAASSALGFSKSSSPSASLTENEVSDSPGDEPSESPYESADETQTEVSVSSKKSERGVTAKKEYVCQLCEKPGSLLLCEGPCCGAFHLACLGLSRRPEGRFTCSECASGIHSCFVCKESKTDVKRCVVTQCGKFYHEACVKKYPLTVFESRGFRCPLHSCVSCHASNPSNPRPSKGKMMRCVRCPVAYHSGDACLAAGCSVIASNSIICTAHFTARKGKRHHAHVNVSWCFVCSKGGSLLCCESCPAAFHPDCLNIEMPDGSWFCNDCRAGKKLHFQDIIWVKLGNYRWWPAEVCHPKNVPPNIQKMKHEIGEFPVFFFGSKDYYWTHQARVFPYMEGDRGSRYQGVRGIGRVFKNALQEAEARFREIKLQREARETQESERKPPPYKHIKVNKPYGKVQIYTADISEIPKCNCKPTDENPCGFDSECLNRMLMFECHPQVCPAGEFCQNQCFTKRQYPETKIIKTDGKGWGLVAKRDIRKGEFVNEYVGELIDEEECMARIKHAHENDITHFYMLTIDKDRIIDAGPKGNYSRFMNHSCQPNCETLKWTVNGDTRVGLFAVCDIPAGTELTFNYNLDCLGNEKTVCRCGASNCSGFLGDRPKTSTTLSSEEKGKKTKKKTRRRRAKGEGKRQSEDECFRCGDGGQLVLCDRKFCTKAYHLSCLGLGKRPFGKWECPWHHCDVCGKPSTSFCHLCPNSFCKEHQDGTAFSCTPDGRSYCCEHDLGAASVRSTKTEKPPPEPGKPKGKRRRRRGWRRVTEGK
# Beta-galactosidase = Beta-galactosidase (Escherichia coli, UniProt Q8VNN2); test: PubChem AID 485352; type: functional
# Chain of Beta-galactosidase (Q8VNN2 whole entry, the tested form may be a part): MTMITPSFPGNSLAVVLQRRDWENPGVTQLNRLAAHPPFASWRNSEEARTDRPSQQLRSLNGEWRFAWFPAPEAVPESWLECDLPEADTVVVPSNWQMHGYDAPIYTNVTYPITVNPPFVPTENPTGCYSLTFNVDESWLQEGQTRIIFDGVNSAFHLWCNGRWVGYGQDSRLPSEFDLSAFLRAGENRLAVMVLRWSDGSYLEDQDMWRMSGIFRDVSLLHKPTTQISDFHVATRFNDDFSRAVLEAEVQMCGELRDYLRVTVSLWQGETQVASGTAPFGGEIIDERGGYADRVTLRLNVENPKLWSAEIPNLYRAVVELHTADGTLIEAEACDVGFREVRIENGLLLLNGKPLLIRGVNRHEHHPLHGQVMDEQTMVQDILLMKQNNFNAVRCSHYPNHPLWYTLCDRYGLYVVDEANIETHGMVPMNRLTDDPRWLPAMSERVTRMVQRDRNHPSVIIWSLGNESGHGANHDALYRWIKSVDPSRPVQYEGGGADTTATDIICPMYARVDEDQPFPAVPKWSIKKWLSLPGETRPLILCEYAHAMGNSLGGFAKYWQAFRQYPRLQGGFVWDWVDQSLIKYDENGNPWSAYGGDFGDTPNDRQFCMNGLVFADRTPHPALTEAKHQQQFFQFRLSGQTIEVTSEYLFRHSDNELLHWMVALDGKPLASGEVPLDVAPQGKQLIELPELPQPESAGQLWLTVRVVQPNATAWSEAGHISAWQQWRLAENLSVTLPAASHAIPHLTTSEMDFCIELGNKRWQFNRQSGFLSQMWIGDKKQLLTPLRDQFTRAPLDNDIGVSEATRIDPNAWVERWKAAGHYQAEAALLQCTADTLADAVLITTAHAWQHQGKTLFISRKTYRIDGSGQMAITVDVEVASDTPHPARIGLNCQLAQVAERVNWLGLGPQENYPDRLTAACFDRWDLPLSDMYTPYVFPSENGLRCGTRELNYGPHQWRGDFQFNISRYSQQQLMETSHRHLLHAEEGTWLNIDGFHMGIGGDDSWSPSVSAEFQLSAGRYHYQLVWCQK
# [18] = CCR5-tropic HIV-1 fusion blockers – cell-based, CCR5-tropic Env, dose response (AID 2279); type: functional
# [19] = molecular target: Type-1 angiotensin II receptor (Homo sapiens, UniProt P30556); test: antagonism of angiotensin II type 1 receptor – cell-based, uHTS hits, selectivity assay for APJ receptor antagonist project, dose response (AID 463214); type: functional;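 also: antagonist potency against angiotensin II stimulated AT1 response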
# Chain of Type-1 angiotensin II receptor (P30556 whole entry): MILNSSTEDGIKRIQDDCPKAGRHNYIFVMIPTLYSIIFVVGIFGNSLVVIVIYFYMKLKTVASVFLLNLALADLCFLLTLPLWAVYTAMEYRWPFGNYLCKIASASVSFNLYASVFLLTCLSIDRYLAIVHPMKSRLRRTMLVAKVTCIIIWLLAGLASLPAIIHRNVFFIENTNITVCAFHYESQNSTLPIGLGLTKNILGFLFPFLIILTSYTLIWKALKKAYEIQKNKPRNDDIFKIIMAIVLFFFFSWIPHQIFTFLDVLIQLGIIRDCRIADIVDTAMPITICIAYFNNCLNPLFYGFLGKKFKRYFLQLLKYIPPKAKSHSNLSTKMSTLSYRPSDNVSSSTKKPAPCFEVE
structure (smiles),measurement,setting,value
C(=N\Nc1nc2ccccc2s1)/c1ccccn1,EC50,[1],< 0.16 µM (active)
same,IC50,Exodeoxyribonuclease V,> 119 µM (inactive)
same,IC50,[2],> 80 µM (inactive)
same,IC50,[3],> 119 µM (inactive)
same,AC50,[4],0.836 µM (active)
same,CC50,Vero,2.61 µM (active)
same,AC50,Paired box protein Pax-8,3.32 µM (active)
same,AC50,[5],2.02 µM (active)
same,AC50,[6],2.06 µM (active)
same,AC50,[7],0.148 µM (active)
same,AC50,[8],9.34 µM (active)
same,AC50,[9],0.229 µM (active)
same,AC50,[10],3.72 µM (active)
CCN(CC)CCCNC1=C(Cl)C(=O)c2ccccc2C1=O,EC50,[11],0.987 µM (active)
same,IC50,[12],1.8 µM (active)
same,IC50,[13],9.5 µM (not active)
same,EC50,[14],2.26 µM (active)
same,AC50,[15],1.78 µM (active)
same,IC50,[16],11.7 µM (active)
same,AC50,INS1,2.46 µM (active)
same,AC50,A-375,14.8 µM (active)
same,AC50,[17],4.69 µM (active)
O=C(O)c1ccccc1N=Nc1c(O)[nH]c2ccc([N+](=O)[O-])cc12,EC50,Beta-galactosidase,> 40 µM (inactive)
same,IC50,[18],10.1 µM (active)
same,IC50,[19],> 40 µM (not active)
